{"source": "patent US20180256601A1", "about": "“URSODEOXYCHOLIC ACID AND BRAIN DISORDERS” (priority 2015, published 2018)", "origin": "cited, not measured here", "key": {"cell model of ALS": {"tested_on": "cell model of ALS", "conditions": "cell model of ALS (Vaz et al, 2015)"}, "prion disease": {"tested_on": "prion disease", "conditions": "Cortez et al, 2015"}, "cellular model of HD": {"tested_on": "cellular model of HD", "conditions": "coincubation with 3-NP"}, "ALS patients": {"tested_on": "ALS patients", "conditions": "1 g twice daily; 17 ALS patients"}, "[1]": {"conditions": "oral; 450 mg UDCA, or complex containing 426 mg UDCA"}, "[2]": {"conditions": "post approval use"}, "PBC patients": {"tested_on": "PBC patients", "conditions": "sixty PBC patients"}, "[3]": {"conditions": "worldwide postmarketing and clinical experience"}, "[4]": {"conditions": "in divided doses (Parry et al, 2010)"}, "[5]": {"experiment": "not given", "remark": "listed apart in the source"}, "[6]": {"conditions": "in vivo"}}, "note": "Entries after “also recorded” stand apart in the source; their conditions may differ.", "data": [{"molecule": "C[C@H](CCC(=O)NCC(=O)O)[C@H]1CC[C@H]2[C@@H]3[C@@H](O)C[C@@H]4C[C@H](O)CC[C@]4(C)[C@H]3CC[C@]12C", "note": "[GUDCA, glycoursodeoxycholic acid]", "values": [{"measurement": "mitochondrial dysfunction, caspase-9 activation, matrix metalloproteinase activation, nitrogen oxide (NO) generation", "setting": "cell model of ALS", "result": "decrease"}]}, {"molecule": "C[C@H](CCC(=O)NCCS(=O)(=O)O)[C@H]1CC[C@H]2[C@@H]3[C@@H](O)C[C@@H]4C[C@H](O)CC[C@]4(C)[C@H]3CC[C@]12C", "note": "[TUDCA, tauroursodeoxycholic acid]", "values": [{"measurement": "therapeutic effects in prion disease", "setting": "prion disease", "result": "variety of therapeutic effects"}, {"measurement": "mitochondrial cytochrome c release and mitochondrial membrane alterations", "setting": "cellular model of HD", "result": "prevented"}, {"measurement": "reduction in apoptosis", "setting": "cellular model of HD", "result": "~80", "unit": "%"}, {"measurement": "Amyotrophic Lateral Sclerosis Functional Rating Scale Revised", "setting": "ALS patients", "result": "significant improvements"}]}, {"molecule": "C[C@H](CCC(=O)O)[C@H]1CC[C@H]2[C@@H]3[C@@H](O)C[C@@H]4C[C@H](O)CC[C@]4(C)[C@H]3CC[C@]12C", "note": "[UDCA, Ursodeoxycholic Acid]", "values": [{"measurement": "Cmax", "setting": "[1]", "result": 6100, "unit": "ng/mL"}, {"measurement": "t1/2(abs)", "setting": "[1]", "result": 0.9, "unit": "h"}, {"measurement": "tmax", "setting": "[1]", "result": 1.38, "unit": "h"}, {"measurement": "correlation between serum concentrations 1 hour after dosing and cerebrospinal fluid concentrations 2 hours after dosing", "setting": "18 ALS patients (Parry et al, 2010)", "result": "strong statistically significant correlation"}, {"measurement": "time of serum level peak", "setting": "after oral administration", "result": "30 to 50", "unit": "min"}, {"measurement": "blood-brain barrier crossing", "setting": "in vivo", "result": "crosses the blood-brain barrier in a dose-dependent manner"}, {"measurement": "Adverse Reactions: Musculoskeletal and connective tissue disorders", "setting": "[2]", "result": "Myalgia"}, {"measurement": "Adverse Reactions: Nervous system disorders", "setting": "[2]", "result": "dizziness, headache"}, {"measurement": "Adverse Reactions: Respiratory, thoracic and mediastinal disorders", "setting": "[2]", "result": "Cough"}, {"measurement": "Adverse Reactions: Gastrointestinal disorders", "setting": "[2]; listed as ursodiol", "result": "abdominal discomfort,; also recorded: abdominal pain,; also recorded: constipation, diarrhea,; also recorded: dyspepsia, nausea,; also recorded: vomiting"}, {"measurement": "Adverse Reactions: General disorders and administration site conditions", "setting": "[2]; listed as ursodiol", "result": "malaise, peripheral; also recorded: edema, pyrexia"}, {"measurement": "Adverse Reactions: Immune System Disorders", "setting": "[2]; listed as ursodiol", "result": "Drug hypersensitivity; also recorded: edema, urticaria,; also recorded: laryngeal edema"}, {"measurement": "Adverse Reactions: Skin and subcutaneous tissue disorder", "setting": "[2]; listed as ursodiol", "result": "alopecia, pruritus, and rash"}, {"measurement": "abdominal pain and asthenia", "setting": "PBC patients", "result": 1, "unit": "patient"}, {"measurement": "anorexia", "setting": "PBC patients", "result": 1, "unit": "patient"}, {"measurement": "dyspepsia", "setting": "PBC patients", "result": 2, "unit": "patients"}, {"measurement": "esophagitis", "setting": "PBC patients", "result": 1, "unit": "patient"}, {"measurement": "nausea", "setting": "PBC patients", "result": 3, "unit": "patients"}, {"measurement": "patients who reported adverse reactions", "setting": "PBC patients; seven patients, nine adverse reactions", "result": 11.6, "unit": "%"}, {"measurement": "frequency of common adverse reactions: abdominal discomfort, abdominal pain, alopecia, diarrhea, nausea, pruritus, rash", "setting": "[3]", "result": "≥ 1", "unit": "%"}, {"measurement": "dose well tolerated without significant neurotoxic effects", "setting": "[4]", "result": "up to 50 mg/kg/day"}, {"measurement": "elimination half-life", "setting": "[5]; adults", "result": "72 to 140", "unit": "h"}, {"measurement": "bile UDCA levels following discontinuation of therapy, as share of average steady state concentrations", "setting": "[5]; in vivo", "result": "5 to 10", "unit": "%"}, {"measurement": "time to steady state concentrations", "setting": "[5]; on average, from starting therapy", "result": "≤ 3", "unit": "weeks"}, {"measurement": "fraction of oral dose excreted via the urine", "setting": "[5]; oral", "result": 1, "unit": "%"}, {"measurement": "fraction of exogenous UDCA absorbed", "setting": "[5]; oral delivery, passive diffusion by the proximal jejunum and ileum", "result": "~90", "unit": "%"}, {"measurement": "percentage of UDCA in the bile pool after administration of exogenous UDCA", "setting": "[6]", "result": "55 to 60", "unit": "%"}]}]}
